Target: NAD(P)H dehydrogenase [quinone] 1 (Mus musculus) (UniProt Q64669)
Assay: Induction of NQO1 activity in mouse Hepa1c1c7 cells assessed as concentration required to double specific enzyme activity after 48 hrs
Type: cell-based

NAD(P)H dehydrogenase [quinone] 1 (Mus musculus), sequence (Q64669 whole entry): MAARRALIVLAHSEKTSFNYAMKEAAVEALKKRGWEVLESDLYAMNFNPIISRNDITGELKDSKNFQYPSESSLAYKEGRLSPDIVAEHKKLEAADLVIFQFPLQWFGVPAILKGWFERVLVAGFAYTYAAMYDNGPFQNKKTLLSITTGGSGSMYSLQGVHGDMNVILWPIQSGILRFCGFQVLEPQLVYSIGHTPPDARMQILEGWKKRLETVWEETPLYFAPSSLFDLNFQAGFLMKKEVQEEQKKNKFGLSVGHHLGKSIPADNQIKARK

| Compound | CD |
| --- | --- |
| C#C[C@]12C=C(C#N)C(=O)C=C1[C@@]1(C)C=C(C#N)C(=O)[C@@](C)(CO)[C@@H]1CC2 (racemic) | 2.2 nM |
| C#C[C@]12C=C(C#N)C(=O)C=C1[C@@]1(C)C=C(C#N)C(=O)C(C)(C)[C@@H]1CC2 (racemic) | 1 nM |

— ChEMBL document CHEMBL2429738, “Synthesis and biological evaluation of biotin conjugates of (±)-(4bS,8aR,10aS)-10a-ethynyl-4b,8,8-trimethyl-3,7-dioxo-3,4b,7,8,8a,9,10,10a-octahydro-phenanthrene-2,6-dicarbonitrile, an activator of the Keap1/Nrf2/ARE pathway, for the isolation of its protein targets” (Bioorg Med Chem Lett, 2013)
